In patent publication US7888355B2, “Compositions and methods for inhibiting growth and metastasis of melanoma” (Burnham Institute for Medical Research, priority 2007, dated 2011):

Tests used:
[1] = test system: SW1 cells; experiment: cells; type: cell-based, mouse; conditions: for Activity or EC50 (μM) in SW1 cells: active/inactive wording, concentration given in cell
Description: (§1) Cell lines. Mouse melanoma (SW1) and human melanoma (LU1205) cells were maintained in DMEM supplemented with 10% FBS, L-glutamine and antibiotics. The human melanoma cell lines MEWO and WM115 were maintained in RPMI supplemented with 10% FBS and antibiotics. Primary mouse melanocytes were cultured in F-12 media supplemented with 10% FBS, antibiotics, IBMX (isobuthyl-methylxantine), bovine pituitary extract, and TPA.
Mitochondrial activity and apoptosis. Cells were exposed to the chemicals for 12-48 hours as indicated in Results. To measure changes in mitochondrial activity reflective of general cell viability, the ATPLITE ATP detection assay was used according to the manufacturer's recommendations (Perkin Elmer). Apoptosis analysis was performed by flow cytometry of PI-stained cells. The percentage of cells to the left of the diploid G0/1 peak, characteristic of hypodiploid cells that have partially lost DNA, was calculated as percentage of apoptotic cells (Bhoumik et al., PNAS 101:4222-7, 2004). Analysis of changes in Caspase 8 expression pattern was performed using immunoblot analysis. […]
Characterization of CSL and AIGA effects on mouse melanoma cells. The structures of AIGA and CSL are depicted in FIGS. 1a and 1b. AIGA was tested for cytotoxicity at concentrations ranging between 0.1 and 2 μM, whereas CSL was used at a concentration of 0.01 to 0.3 μM. SW1 cells or normal melanocytes were seeded on 96 well plates and 24 h late, cells were treated with the indicated concentrations of ATF2 50-100 peptide, AIGA, or CSL for 20 h. ATF2 50-100 peptide (cloned in mammalian expression vector in frame with penetratin was transfected with the aid of lipofectamine) was used as a positive control. ATP levels were used as an indicator of cell viability and were measured using the ATPLITE ATP detection assay kit. The number of surviving cells upon AIGA treatment was normalized to the number of surviving cells under the control treatment, and the normalized number was designated as the “% Viability.” Results shown in FIGS. 1c-1f represent 3 experiments. Treatment of SW1 melanoma cells with 1 μM of AIGA reduced the viability of melanoma cells to 10%, (FIG. 1c). Treatment of the SW1 cells with 0.05 μM of CSL reduced the viability of melanoma cells to 50%, and 0.1 μM reduced it to 10% (FIG. 1d). […] Normal melanocytes and fibroblasts were used as a control.
Thus, the two compounds were evaluated to determine if they require JNK activity for their effects on melanoma cells. To this end, the ability of AIGA or CSL to affect the viability of melanoma cells in the presence of a JNK inhibitor was tested. SW1 cells, with or without a 30-minute pretreatment with the JNK inhibitor SP600125 (10 μM), were contacted with AIGA or CSL at the indicated concentrations for 20 h. ATP levels were used to measure the cell viability using the ATPLITE kit. The number of surviving cells upon AIGA or CSL treatment was normalized to the number of surviving cells under the control treatment, and the normalized number was designated as the “% Viability.” Shown are representative results from 2 experiments. […] Of note, inhibition of JNK activity was more pronounced at lower concentrations of CSL compared with AIGA. […] To assess whether these compounds affect JNK activity, changes in JNK phosphorylation on residues 183/185, which are required for its kinase activity, were monitored. Western blot analysis for JNK phosphorylation on residues 183/185 was performed on protein extracts that were prepared from cells treated with AIGA at concentrations of 0.5 μM, 1.0 μM, and 2.0 μM and a control with no AIGA treatment. Duplicate samples were treated with JNK inhibitor (SP600125). Total level of JNK was analyzed in parallel. […]

[2] = test system: WM793 cells; experiment: WM793 melanoma cell viability; type: cell-based, human; conditions: active/inactive wording, concentration given in cell
Description: (§2) Mitochondrial activity and apoptosis. Cells were exposed to the chemicals for 12-48 hours as indicated in Results. To measure changes in mitochondrial activity reflective of general cell viability, the ATPLITE ATP detection assay was used according to the manufacturer's recommendations (Perkin Elmer). Apoptosis analysis was performed by flow cytometry of PI-stained cells. The percentage of cells to the left of the diploid G0/1 peak, characteristic of hypodiploid cells that have partially lost DNA, was calculated as percentage of apoptotic cells (Bhoumik et al., PNAS 101:4222-7, 2004). Analysis of changes in Caspase 8 expression pattern was performed using immunoblot analysis.

[3] = test system: WM115 cells; experiment: WM115 melanoma cell viability; type: cell-based, human; conditions: active/inactive wording, concentration given in cell
Description: as §1, §2
The effects of CSL and AIGA on the human melanoma cell lines WM115 and MEWO were assessed. AIGA reduced the viability of the human melanoma cultures when added at a concentration of 0.5-2 μM (FIG. 5a and FIG. 5c) whereas CSL reduced their viability at a concentration of 0.1 μM-2 μM in WM115 cells (FIG. 5b) and 0.05 μM-2 μM in MeWO cells (FIG. 5d).

[4] = Tolerability of administration to mice; type: in vivo, mouse; conditions: daily administration, doses up to 1 mg/kg
Description: (§3) To assess the ability of CSL and CSL derivatives to affect the tumorigenicity and metastasis of melanoma, the mouse SW1 cell lines were used in syngeneic models. Injection of SW1 melanoma cells subcutaneously into C3H mice was followed by daily injections of CSL intraperitoneally (IP). […] Briefly, SW1 cells that stably express GFP were injected s.c into C3H mice. When the tumor reached the size of 50 mm^3, the vehicle, CSL (1 mg/kg), CA16 (0.5 mg/kg) or CA19 (0.5 mg/kg) were administered i.p, every second day for a period of 24 days. Tumor size was measured at the indicated times. Data presented in FIG. 6b represents two experiments.

[5] = test system: Human melanoma LU1205 cells; experiment: LU1205 lung metastasis in nude mice; type: in vivo, mouse; conditions: compound every second day, analysis 60 days after injection
Description: (§4) Tumor growth and metastasis in vivo. GFP-expressing SW1 cells were trypsinized, resuspended in PBS, and injected subcutaneously (1×10^6) into the lower flank of 6 to 7-week-old mice. When tumors reached a size of about 50 mm^3, the indicated compounds (100 μL of the vehicle—10% DMSO, 70% Cremophor/ethanol (3:1), and 20% PBS and 1.0 mg/kg of celastrol or 0.5 mg/kg of the derivatives CA16, CA19) were injected i.p. every alternate day. Body weight and tumor growth were monitored every 2 days. GFP-expressing SW1 tumors were monitored in vivo on shaved mice with a light box illuminated by blue light fiber optics (Lightools Research; Encinitas, Calif.), and imaging was carried out with a digital camera (Nikon D100). Tumors were measured for up to 3 weeks. For metastases studies, LU1205 cells (1×10^6) were injected i.v. into the lateral tail vein of nude mice. At the end of the experiment, the lungs and tumors were excised and weighed. To detect metastatic lesions, lungs were fixed in formalin, embedded in paraffin and subjected to hematoxylin and eosin staining.
The effect of CSL and CSL derivatives, CA16 and CA19, on the metastatic capacity of melanoma cells was then determined. Human melanoma LU1205 cells were injected into the tail vein of nude mice, followed by administration of the compounds every second day. This approach allows monitoring of changes in the number of lesions formed on the lungs, a primary organ for tumor cell growth under this experimental approach. Analysis performed 60 days following injection determined changes in the number and size of metastatic lesions in each of the experimental groups.

[6] = test system: SW1 mouse melanoma; experiment: SW1 metastatic lesions in syngeneic C3H mice; type: in vivo; conditions: SW1 cells s.c. in C3H mice
Description: as §4
To further assess the impact of these compounds on the development of metastatic lesions, the SW1 mouse melanoma model using the syngeneic C3H strain was employed. Subcutaneous injection of SW1 cells results in tumor formation at the site of injection followed by metastasis to different sites within 6-8 weeks.

[7] = test system: SW1 tumors; experiment: SW1 tumor growth in syngeneic C3H mice; type: in vivo, mouse; conditions: 0.5 mg/kg i.p. every second day for 24 days
Description: as §4, §3

Row | Compound | Activity or EC50 (μM) in WM793 cells [2] | Activity or EC50 (μM) in WM115 cells [3] | Activity or EC50 (μM) in SW1 cells [1] | further results
1 | COC(=O)[C@]1(C)CC[C@]2(C)CC[C@]3(C)C4=CC=C5C(=CC(=O)C(O)=C5C)[C@]4(C)CC[C@@]3(C)[C@@H]2C1 [Pristimerin, pristimerin, reference compound] | – | – | – | EC50 ([1]; Mus musculus, numeric EC50 cells of the column, read-out: Activity or EC50 (μM) in SW1 cells): < 0.1 µM
2 | CNC(=O)C1(C)CCC2(C)CCC3(C)C4=CC=C5C(=CC(=O)C(O)=C5C)C4(C)CCC3(C)C2C1 (centres unmarked) [CA13] | inactive | inactive | – | –
3 | CC1=C(O)C(=O)C=C2C1=CC=C1C2(C)CCC2(C)C3CC(C)(C(=O)NCc4ccccc4)CCC3(C)CCC12C (centres unmarked) [CA02] | inactive | inactive | inactive | –
4 | COc1ccc(CNC(=O)C2(C)CCC3(C)CCC4(C)C5=CC=C6C(=CC(=O)C(O)=C6C)C5(C)CCC4(C)C3C2)cc1 (centres unmarked) [CA01] | – | – | active | –
5 | CC1=C(O)C(=O)C=C2C1=CC=C1C2(C)CCC2(C)C3CC(C)(C(=O)OCc4ccccc4)CCC3(C)CCC12C (centres unmarked) [CA16] | – | – | – | toxicity or discomfort in mice [4]: did not result in toxicity or any noticeable discomfort; 1-2 mm and mediastinal lesions [5]: some activity was observed; development of large lung lesions [5]: no impact; development of small sized lesions [6]: opposite effect; metastatic lesions [6]: somewhat active; decrease in tumor size [7]: about 50%
6 | CC1=C(O)C(=O)C=C2C1=CC=C1C2(C)CCC2(C)C3CC(C)(C(=O)NC(C)C)CCC3(C)CCC12C (centres unmarked) [CA04] | inactive | – | active | –
7 | CC1=C(O)C(=O)C=C2C1=CC=C1C2(C)CCC2(C)C3CC(C)(C(=O)N4CCN(C)CC4)CCC3(C)CCC12C (centres unmarked) [CA14] | inactive | inactive | – | –
8 | CC1=C(O)C(=O)C=C2C1=CC=C1C2(C)CCC2(C)C3CC(C)(C(=O)OC(C)C)CCC3(C)CCC12C (centres unmarked) [CA19] | – | – | – | toxicity or discomfort in mice [4]: did not result in toxicity or any noticeable discomfort; growth of large, medium and small sized lesions in the lungs [5]: efficient in inhibiting growth of large medium and small sized lesions in the lungs; metastatic lesions [6]: potently exhibit the ability to inhibit large as well as small metastatic lesions, with the exception of the 1-2 mm range; reduction of tumor growth [7]: 5 fold
9 | CC1=C(O)C(=O)C=C2C1=CC=C1C2(C)CCC2(C)C3CC(C)(C(=O)NCc4cccnc4)CCC3(C)CCC12C (centres unmarked) [CA03] | inactive | Inactive | active | –
10 | CCOC(=O)C1(C)CCC2(C)CCC3(C)C4=CC=C5C(=CC(=O)C(O)=C5C)C4(C)CCC3(C)C2C1 (centres unmarked) [CA18] | – | – | – | ability to induce melanoma cell death, in words ([1]; SW1 cells, compared with celastrol or other derivatives): not that efficient in the SW1 melanoma cells compared to CA19
11 | Cc1c(O)c(O)cc2c1CC=C1[C@@]2(C)CC[C@@]2(C)[C@@H]3C[C@](C)(C(=O)O)CC[C@]3(C)CC[C@]12C [Dihydrocelastrol, dihydrocelastrol, reference compound] | – | – | inactive | –
12 | CC1=C(O)C(=O)C=C2C1=CC=C1C2(C)CCC2(C)C3CC(C)(C(=O)N4CCOCC4)CCC3(C)CCC12C (centres unmarked) [CA08] | inactive | inactive | inactive | –
13 | COCCNC(=O)C1(C)CCC2(C)CCC3(C)C4=CC=C5C(=CC(=O)C(O)=C5C)C4(C)CCC3(C)C2C1 (centres unmarked) [CA07] | – | inactive | active | –
14 | CC1=C(O)C(=O)C=C2C1=CC=C1C2(C)CCC2(C)C3CC(C)(C(=O)N4CCCC4)CCC3(C)CCC12C (centres unmarked) [CA06] | – | – | active | –
15 | COC(=O)COC(=O)C1(C)CCC2(C)CCC3(C)C4=CC=C5C(=CC(=O)C(O)=C5C)C4(C)CCC3(C)C2C1 (centres unmarked) [CA15] | – | – | Inactive | –
16 | CC1=C(O)C(=O)C=C2C1=CC=C1C2(C)CCC2(C)C3CC(C)(C(=O)N(C)C)CCC3(C)CCC12C (centres unmarked) [CA05] | inactive | – | active | –
